The source of these data is patent US12122785B2, “Substituted pyridines, pyridazines, pyrimidines, and 1,2,4-triazines as TYK2 inhibitors” (Sudo Biosciences Limited, priority 2021, dated 2024).

By IC50 is commonly meant the point on the concentration scale where inhibition reaches its midpoint.

Structures are written as SMILES.

Experiment [1] concerns TYK2 pseudokinase (JH2); IFNα-stimulated HEK-Blue IFNα/β cells. Put plainly: HEK-Blue IFNα/β reporter assay (STAT1-inducible SEAP) for profiling TYK2 pseudokinase (JH2) inhibition. The experiment is classed as cell-based. The conditions noted are these: 1 ng/mL human recombinant IFNα, SEAP readout, read-out: IFNα (TYK2 inhibitory activity, IC50). As to the method:
(§1) Example B-1: HEK-Blue™ IL-23 and IFNα/β Reporter Assays for Profiling TYK2 Pseudokinase (JH2) Inhibition
(§2) HEK-Blue™ IL-23 and IFNα/β cells with a stably-integrated cytokine receptor and STAT3 or STAT1 express STAT-inducible secreted embryonic alkaline phosphatase (SEAP) reporter gene upon cytokine stimulation. These cells are plated in DMEM (Gibco) containing 10% heat-inactivated FBS (Gibco) and 100 U/mL PenStrep (Gibco) at 37° C. under 5% CO2 conditions for 20-22 hours. The cells are then pretreated with serially diluted test compounds for 60 min prior to stimulation with either 10 ng/mL human recombinant IL-23 (Miltenyl Biotech) or 1 ng/mL human recombinant IFNα (InvivoGen) for 22-24 hours for IL-23 or 16-18 h for IFNα. SEAP induction is measured using the QUANTI Blue™ Solution (InvivoGen) according to the manufacturer's instructions.
On the technique in general: Reporter assays use an easily measured gene product as a stand-in for the process of interest.

The next experiment deals with T1, JAK1 kinase domain (JH1) (Homo sapiens, UniProt P23458).
T1 construct: recombinant purified His or GST-tagged catalytic domain for each enzyme; made in house
T1 sequence (P23458 875-1153 limits assumed): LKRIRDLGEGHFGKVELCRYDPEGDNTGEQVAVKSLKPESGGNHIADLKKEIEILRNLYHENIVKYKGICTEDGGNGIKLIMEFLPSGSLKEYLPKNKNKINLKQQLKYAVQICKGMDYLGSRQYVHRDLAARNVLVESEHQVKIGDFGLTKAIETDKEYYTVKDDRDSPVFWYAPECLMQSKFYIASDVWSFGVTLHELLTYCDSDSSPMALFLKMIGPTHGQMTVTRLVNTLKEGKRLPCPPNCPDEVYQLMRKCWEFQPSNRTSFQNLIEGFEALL
Put plainly: HTRF-based selectivity assay, JAK1 catalytic domain. The experiment is classed as biochemical. To be noted: 21.43 μM ATP, read-out: JAK-JHI (IC50). As to the method:
(§3) Example B-2: HTRF-Based Selectivity Assay
(§4) The ability of compounds to inhibit the activity of JAK1, JAK2, JAK3 and TYK2 is measured using a recombinant purified His or GST-tagged catalytic domain for each enzyme (JAK1, JAK2 and TYK2 are generated in-house; JAK3 was purchased from Carna biosciences, Cat #08-046) in an HTRF format biochemical assay. The reactions employs a commercial peptide substrate from Cisbio (Cat #62TK0PEC). The basic assay protocol is as follows: first, 2.5 μL of diluted compounds (4×) in DMSO are dispensed into a 384-well Optiplate. Next, 2.5 μL of enzyme (final concentrations for enzymes are: TYK2—700 ng/mL, JAK1—80.6 ng/mL, JAK2—2.1 ng/mL and JAK3—171.8 ng/mL) is added and incubated at RT for 5-20 min. Finally, 5 μl of mixture of 2×ATP [Final concentration 20 μM for TYK2, 21.43 μM for JAK1, 14.7 μM for JAK2 and 2.12 μM for JAK3]+2× Substrate [Final concentration 217 nM for TYK2, 454.7 nM for JAK1, 200 nM for JAK2 and 257.4 nM for JAK3] is added to 384 well Optiplate. Composition of Kinase assay buffer used in the assay is as follows: HEPES 50 mM, EGTA 1 mM, MgCl2 10 mM, DTT 2 mM, Tween-20 0.01% and water. Then the plates are shaken and then incubated at 26.5° C. for 60 min.
On the technique in general: TR-FRET usually uses a lanthanide donor and a delayed reading to cut background.

The next experiment concerns the target T2, JAK3 kinase domain (JH1) (Homo sapiens, UniProt P52333).
T2 construct: recombinant purified His or GST-tagged catalytic domain for each enzyme; purchased Carna biosciences 08-046
Nature of the experiment: HTRF-based selectivity assay, JAK3 catalytic domain. The conditions noted are these: 2.12 μM ATP. In kind it is biochemical. As to the method: as §3, §4

The target in another experiment is T3, JAK2 kinase domain (JH1) (Homo sapiens, UniProt O60674).
T3 construct: recombinant purified His or GST-tagged catalytic domain for each enzyme; made in house
T3 sequence (O60674 849-1124 limits assumed): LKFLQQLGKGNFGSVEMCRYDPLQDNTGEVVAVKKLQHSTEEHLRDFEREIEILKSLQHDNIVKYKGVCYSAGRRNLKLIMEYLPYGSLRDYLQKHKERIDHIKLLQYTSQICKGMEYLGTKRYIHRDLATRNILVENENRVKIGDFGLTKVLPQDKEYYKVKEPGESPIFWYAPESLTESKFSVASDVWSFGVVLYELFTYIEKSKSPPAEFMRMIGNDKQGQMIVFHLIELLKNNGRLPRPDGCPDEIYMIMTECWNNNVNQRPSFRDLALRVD
Nature of the experiment: HTRF-based selectivity assay, JAK2 catalytic domain. In kind it is biochemical. To be noted: 14.7 μM ATP. The protocol:
as §3, §4

In experiment [2] the test system is TYK2 pseudokinase (JH2); IL-23-stimulated HEK-Blue IL-23 cells. Nature of the experiment: HEK-Blue IL-23 reporter assay (STAT3-inducible SEAP) for profiling TYK2 pseudokinase (JH2) inhibition. In kind it is cell-based. To be noted: 10 ng/mL human recombinant IL-23, SEAP readout, read-out: IL23 (TYK2 inhibitory activity, IC50). As to the method: as §1, §2
The target of the next experiment is T4, TYK2 kinase domain (JH1) (Homo sapiens, UniProt P29597).
T4 construct: recombinant purified His or GST-tagged catalytic domain for each enzyme; made in house
T4 sequence (P29597 897-1176 limits assumed): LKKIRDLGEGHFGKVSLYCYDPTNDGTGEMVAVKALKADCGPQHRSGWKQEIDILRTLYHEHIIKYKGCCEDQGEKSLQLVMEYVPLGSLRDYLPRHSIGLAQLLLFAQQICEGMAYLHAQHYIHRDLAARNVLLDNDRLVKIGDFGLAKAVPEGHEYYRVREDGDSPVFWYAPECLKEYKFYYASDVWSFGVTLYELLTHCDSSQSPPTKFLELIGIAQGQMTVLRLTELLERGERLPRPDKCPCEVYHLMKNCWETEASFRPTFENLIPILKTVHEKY
Put plainly: HTRF-based selectivity assay, TYK2 catalytic domain. In kind it is biochemical. The conditions noted are these: 20 μM ATP. As to the method: as §3, §4

Experiment [3] concerns IFNγ-stimulated HEK-Blue IFNγ reporter cells. Nature of the experiment: HEK-Blue IFNγ reporter assay (STAT1-inducible SEAP) for determining selectivity. To be noted: 50 ng/mL human recombinant IFNγ, 24 hours, read-out: IFN-γ SEAP selectivity assay IC50. In kind it is cell-based. The protocol: (§5) Example B-3: HEK-Blue™ IL-2 and IFNγ Reporter Assays for Determining Selectivity
(§6) HEK-Blue™ IL-2 and IFNγ reporter cells with a stably-integrated cytokine receptor and STAT5 or STAT1 express STAT-inducible secreted embryonic alkaline phosphatase (SEAP) reporter gene upon cytokine stimulation. These cells were plated in DMEM (Gibco) containing 10% heat-inactivated FBS (Gibco) and 100 U/mL PenStrep (Gibco) at 37° C. under 5% CO2 conditions for 20-22 hours. The cells were then pretreated with serially diluted test compounds for 60 min prior to stimulation with either 4 ng/mL human recombinant IL-2 (Miltenyl Biotech) or 50 ng/mL human recombinant IFNγ (InvivoGen) for 24 hours. SEAP induction was measured using the QUANTI-Blue™ Solution (InvivoGen) according to the manufacturer's instructions.

In experiment [4] the test system is IL-2-stimulated HEK-Blue IL-2 reporter cells. Nature of the experiment: HEK-Blue IL-2 reporter assay (STAT5-inducible SEAP) for determining selectivity. The experiment is classed as cell-based. To be noted: 4 ng/mL human recombinant IL-2, 24 hours. As to the method:
as §5, §6

T2 sequence (P52333 822-1111 limits assumed): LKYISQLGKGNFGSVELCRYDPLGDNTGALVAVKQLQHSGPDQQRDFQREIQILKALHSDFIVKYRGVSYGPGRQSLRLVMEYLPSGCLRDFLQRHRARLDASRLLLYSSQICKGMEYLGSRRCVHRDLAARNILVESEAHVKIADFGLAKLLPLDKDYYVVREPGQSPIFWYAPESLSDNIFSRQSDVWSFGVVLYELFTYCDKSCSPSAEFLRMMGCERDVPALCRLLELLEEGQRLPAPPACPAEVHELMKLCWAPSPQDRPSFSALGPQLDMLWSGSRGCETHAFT

Consider `[2H]C([2H])([2H])NC(=O)c1cnc(NC(=O)C2CC2)cc1Nc1cccc2c1N(C)[C@@H](C)c1cn(C)nc1-2` (single isomer, unassigned) [Compound 30], for which the IC50 is under 30 nM in experiment [1]; over 1000 nM on JAK1 kinase domain (JH1); over 1000 nM at JAK3 kinase domain (JH1); over 1000 nM at JAK2 kinase domain (JH1); under 30 nM in experiment [2]; over 1000 nM on TYK2 kinase domain (JH1).

For the compound `[2H]C([2H])([2H])NC(=O)c1nnc(NC(=O)C2CC2)cc1Nc1cccc2c1N(C([2H])([2H])[2H])Cc1cn(C)nc1-2` [Compound 28, 6-(cyclopropanecarboxamido)-N-(methyl-d3)-4-((2-methyl-5-(methyl-d3)-4,5-dihydro-2H-pyrazolo[4,3-c]quinolin-6-yl)amino)pyridazine-3-carboxamide], the 50% inhibitory concentration (IC50) in experiment [1] was under 30 nM; at JAK1 kinase domain (JH1) it was over 1000 nM; on JAK3 kinase domain (JH1), over 1000 nM; in experiment [3], 30 to 300 nM; against JAK2 kinase domain (JH1), over 1000 nM; in experiment [2] it was under 30 nM. The IC50 in experiment [4] is 300 to 1000 nM.

Regarding `CN1Cc2cn(C)nc2-c2cccc(Nc3cc(NC(=O)C4CC4)nc4[nH]n(C)c(=O)c34)c21` [Compound 89, N-(4-((2,5-dimethyl-4,5-dihydro-2H-pyrazolo[4,3-c]quinolin-6-yl)amino)-2-methyl-3-oxo-2,3-dihydro-1H-pyrazolo[3,4-b]pyridin-6-yl)cyclopropanecarboxamide], the IC50 is 30 to 300 nM in experiment [1]; over 1000 nM at JAK3 kinase domain (JH1); over 1000 nM in experiment [3]; over 1000 nM on JAK2 kinase domain (JH1); under 30 nM in experiment [2]; over 1000 nM in experiment [4]. Further, the half-maximal inhibitory concentration (IC50) on TYK2 kinase domain (JH1) is over 1000 nM.

Take `[2H]C([2H])([2H])NC(=O)c1cnc(NC(=O)C2CC2)cc1Nc1cccc2c1N(C)Cc1cn(C3COC3)nc1-2` [Compound 29, 6-(cyclopropanecarboxamido)-N-(methyl-d3)-4-((5-methyl-2-(oxetan-3-yl)-4,5-dihydro-2H-pyrazolo[4,3-c]quinolin-6-yl)amino)nicotinamide]: the IC50 is under 30 nM in experiment [1]; over 1000 nM at JAK1 kinase domain (JH1); over 1000 nM in experiment [3]; over 1000 nM against JAK2 kinase domain (JH1); under 30 nM in experiment [2]; over 1000 nM in experiment [4]. Further, the IC50 against TYK2 kinase domain (JH1) was over 1000 nM.

For `[2H]C([2H])([2H])NC(=O)c1cnc(NC(=O)C2CC2)cc1Nc1nccc2c1N(C)Cc1cn(C)nc1-2` [Compound 64, 6-(cyclopropanecarboxamido)-4-((2,5-dimethyl-4,5-dihydro-2H-pyrazolo[4,3-c][1,7]naphthyridin-6-yl)amino)-N-(methyl-d3)nicotinamide], the IC50 in experiment [1] is under 30 nM; on JAK1 kinase domain (JH1) it was over 1000 nM; in experiment [3] it was 300 to 1000 nM; against JAK2 kinase domain (JH1), over 1000 nM; in experiment [2], under 30 nM; in experiment [4] it was over 1000 nM. For the same compound, the IC50 against TYK2 kinase domain (JH1) is over 1000 nM.

Take `Cn1cc2c(n1)-c1cccc(Nc3cc(NC(=O)C4CC4)nc4[nH]n(C)c(=O)c34)c1OC2` [Compound 88, N-(2-methyl-4-((2-methyl-2,4-dihydrochromeno[4,3-c]pyrazol-6-yl)amino)-3-oxo-2,3-dihydro-1H-pyrazolo[3,4-b]pyridin-6-yl)cyclopropanecarboxamide]: the IC50 in experiment [1] is over 1000 nM; on JAK3 kinase domain (JH1), over 1000 nM; in experiment [3], over 1000 nM; on JAK2 kinase domain (JH1), over 1000 nM; in experiment [2] it was 300 to 1000 nM; in experiment [4], over 1000 nM. Besides, the IC50 at TYK2 kinase domain (JH1) is over 1000 nM.

As for `[2H]C([2H])([2H])NC(=O)c1cnc(NC(=O)NC)cc1Nc1cccc2c1N(C)Cc1cn(C)nc1-2` [Compound 25, 4-((2,5-dimethyl-4,5-dihydro-2H-pyrazolo[4,3-c]quinolin-6-yl)amino)-N-(methyl-d3)-6-(3-methylureido)nicotinamide], the IC50 in experiment [1] is under 30 nM; on JAK1 kinase domain (JH1), over 1000 nM; in experiment [3], over 1000 nM; against JAK2 kinase domain (JH1), over 1000 nM; in experiment [2], under 30 nM; in experiment [4], over 1000 nM. This compound also yielded a half-maximal inhibitory concentration (IC50) against TYK2 kinase domain (JH1) of over 1000 nM.
